From US11213510B2, “Thioindirubins” (City of Hope, priority 2017, dated 2022) come the findings set out here.

One data set concerns A2058 melanoma cell line. Nature of the data set: MTS cell viability assay, A2058. The format is cell-based. The note with it: 48 h; for Cell viability (% control) A2058 1 μM / Cell viability (% control) A2058 10 μM: MTS; for Cell viability (% control) A2058 10 μM / Cell viability at 10 μM (% control) A2058: A2058, 10 μM; for Cell viability at 10 μM (% control) A2058: MTS (Table 2). An excerpt: (§1) To determine if novel synthetic thioindirubins have antitumor activities, we performed an MTS cell viability assay. Initially, we screened them at […] final concentration with A2058 melanoma and DU145 prostate cancer cell lines. Then, compound 9b and compound 7e were selected to determine IC50 values against prostate cancer, melanoma and lung cancer cells, including DU145, A2058, A549, H513, H2461, H358, DMS114, H2596, DMS273, H69, H526 and DMS114 cell lines. For the viability assay, 5000 cells/well were seeded in 96-well plates, incubated overnight at 37° C. in 5% CO2 and then exposed to […] of compounds or in a dose-dependent manner for 48 h. After 48 h treatment with compounds, MTS dye (20 μL/well) was added to 96-well plates. Viable cell numbers were determined by tetrazolium conversion to its formazan dye. Absorbance was measured at 490 nm using the BMG LABTECH plate reader. Dimethyl sulfoxide (DMSO) was used as the vehicle control. Each experiment was conducted in triplicate. IC50 values were determined using CalcuSyn software (Biosoft).
(Formazan colour is commonly taken as a measure of viable cells.)

The test system of data set [1] is DU145 prostate cancer cell line. Nature of the data set: MTS cell viability assay, DU145. The format is cell-based. The note with it: 48 h; for Cell viability (% control) DU145 1 μM / Cell viability (% control) DU145 10 μM: MTS; for Cell viability (% control) DU145 10 μM / Cell viability at 10 μM (% control) DU145: DU145, 10 μM; for Cell viability at 10 μM (% control) DU145: MTS (Table 2).
Excerpt: as §1

The structures appear in SMILES notation.

Regarding `N#Cc1ccc2c(c1)C(=O)/C(=C1/C(=O)Sc3ccccc31)N2` [Compound 6d, (2′Z)-5′-Cyanothioindirubin], in the data set with A2058 melanoma cell line, the “Cell viability (% control) A2058 1 μM” value was found to be 95 % control and the “Cell viability (% control) A2058 10 μM” value was 87 % control. For the same compound, in data set [1], the “Cell viability (% control) DU145 1 μM” value is reported as above 100 % control and the “Cell viability (% control) DU145 10 μM” value came out at 95 % control.

Turning to `O=C1Nc2ccccc2/C1=C1/Sc2ccccc2C1=O` [Compound 6a, (2′Z)-Thioindirubin], in the data set on A2058 melanoma cell line, the “Cell viability (% control) A2058 1 μM” value was found to be 99 % control and the “Cell viability (% control) A2058 10 μM” value came to 77 % control. Besides, in data set [1], the “Cell viability (% control) DU145 1 μM” value is above 100 % control and the “Cell viability (% control) DU145 10 μM” value turned out to be 90 % control.

Turning to `O=C1Sc2ccccc2/C1=C1/Nc2cc(Cl)ccc2C1=O` [Compound 6c, (2′Z)-6′-Chlorothioindirubin], in the data set on A2058 melanoma cell line, the “Cell viability (% control) A2058 1 μM” value is listed as 84 % control and the “Cell viability (% control) A2058 10 μM” value is listed as 96 % control. In data set [1], the “Cell viability (% control) DU145 1 μM” value worked out at 80 % control and the “Cell viability (% control) DU145 10 μM” value amounted to 82 % control.

For `Cc1ccc2c(c1)C(=N\O)/C(=C1/C(=O)Nc3ccccc31)S2` [Compound 7g, (2′Z,3′E)-5′-Methylthioindirubin-3′-oxime], in the data set on A2058 melanoma cell line, the “Cell viability (% control) A2058 1 μM” value amounted to 84 % control and the “Cell viability (% control) A2058 10 μM” value amounted to 88 % control. Moreover, in data set [1], the “Cell viability (% control) DU145 1 μM” value turned out to be 88 % control and the “Cell viability (% control) DU145 10 μM” value amounted to 79 % control.

On to `COC(=O)c1ccc2c(c1)S/C(=C1\C(=O)Nc3ccccc31)C2=O` [Compound 6f, (2′Z)-6′-(Methoxycarbonyl)thioindirubin], for which, in the data set with A2058 melanoma cell line, the “Cell viability (% control) A2058 1 μM” value was 93 % control and the “Cell viability (% control) A2058 10 μM” value was above 100 % control. In addition, in data set [1], the “Cell viability (% control) DU145 1 μM” value is 99 % control and the “Cell viability (% control) DU145 10 μM” value worked out at 93 % control.

Regarding `O=C1Nc2ccccc2/C1=C1/Sc2ccccc2/C1=N\OCCN1CCNCC1` [Compound 9a, (2′Z,3′E)-Thioindirubin-3′-[O-(2-(piperazin-1-yl)ethyl)]oxime], the “Cell viability at 10 μM (% control) A2058” value with A2058 melanoma cell line turned out to be 91 % control. Further, in data set [1], the “Cell viability at 10 μM (% control) DU145” value is on record as 82 % control.

For `COC(=O)c1ccc2c(c1)C(=N\OCCN1CCOCC1)/C(=C1/C(=O)Nc3ccccc31)S2` [Compound 9c, (2′Z,3′E)-5′-(Methoxycarbonyl)thioindirubin-3′-[O-(2-(morpholino)ethyl)]oxime], in the data set on A2058 melanoma cell line, the “Cell viability at 10 μM (% control) A2058” value is 70 % control. In data set [1], the “Cell viability at 10 μM (% control) DU145” value amounted to 101 % control.

Regarding `COC(=O)c1ccc2c(c1)NC(=C1\C(=O)Sc3ccccc31)/C2=N/O` [Compound 7f, (2′Z,3′E)-6′-(Methoxycarbonyl)thioindirubin-3′-oxime], in the data set on A2058 melanoma cell line, the “Cell viability (% control) A2058 1 μM” value came to 92 % control and the “Cell viability (% control) A2058 10 μM” value is listed as above 100 % control. Also, in data set [1], the “Cell viability (% control) DU145 1 μM” value is listed as above 100 % control and the “Cell viability (% control) DU145 10 μM” value was above 100 % control.
